{"source": "patent US20050124032A1", "about": "(priority 2002, published 2005)", "tested_on": "X. dendrorhous Y-2476", "type": "cell-based, Xanthophyllomyces dendrorhous"}
{"smiles": "CC1=C(C)C(=O)C(C)=C(C)C1=O", "note": "[duroquinone]", "values": [{"measurement": "Reduction of growth", "result": "15-25%"}]}
